Experimental data from patent publication US20220280490A1, “TREATMENT OF FRAGILE X SYNDROME” (HEALX LTD, priority 2019, published 2022).

What was measured:
Assay type in all cases: in vivo, mouse
Details in all cases: 12 mg/kg ibudilast, compared with WT vehicle
Fmr1 KO2 mice [1] = experiment: Nesting
Source text: (§1) Fmr1 knockout 2 (Fmr1 K02) mice were generated by deletion of the promoter and first exon of Fmr1. The Fmr1 KO2 it is both, protein and mRNA null. In this study we used Fmr1 KO2 and wild-type (WT) littermates generated on a C57BL/6J background and repeatedly backcrossed onto a C57BL/6J background for more than eight generations.
(§2) There were four treatment groups per compound in the study with 10 male mice used per treatment group (all at 8 weeks of age): Group 1: wild-type littermate mice treated with vehicle (WT-Veh), Group 2: Fmr1 KO2 mice treated with vehicle (KO-Veh), Group 3: Fmr1 KO2 mice treated with 12 mg/kg ibudilast (KO-ibudilast).
(§3) For experiments, all mice were tested once in the same apparatus. Prior to testing, mice were placed in the apparatus for some minutes before the experiment. The apparatus was cleaned with moist and dry tissues before testing each mouse. […] We assessed weight loss, fur loss, walking, eyes open, eye discharges and general behavior.
The test was performed in individual cages. […] Mice were placed individually into the nesting cages 1 hr. before the dark phase, and the results were assessed the next morning. Nest building was scored on a 5 point scale. […]
(§4) Data were analyzed by one-way ANOVA with a Dunnett's multiple comparison post hoc test in which WT Vehicle group was used as reference and compared with all the other groups

Fmr1 KO2 mice [2] = experiment: Three-chambered sociability task (social interaction)
Source text: as §1, §2, §3
In the three-chambered sociability task, a subject mouse was evaluated for its exploration of a novel social stimulus (novel mouse). […] The time spent exploring the novel mice was scored as exploration ratio.
as §4

Fmr1 KO2 mice [3] = experiment: Contextual fear conditioning
Source text: as §1, §2
For experiments, all mice were tested once in the same apparatus. Prior to testing, mice were placed in the apparatus for some minutes before the experiment. The apparatus was cleaned with moist and dry tissues before testing each mouse. The aim was to create a low but constant background mouse odor for all experimental subjects. Testers were blind to the genotype and treatment during all testing and data analysis. We assessed weight loss, fur loss, walking, eyes open, eye discharges and general behavior. […]
as §4

Fmr1 KO2 mice [4] = experiment: Open field (hyperactivity)
Source text: as §1, §2
For experiments, all mice were tested once in the same apparatus. Prior to testing, mice were placed in the apparatus for some minutes before the experiment. […] We assessed weight loss, fur loss, walking, eyes open, eye discharges and general behavior.
The open-field apparatus was used to test hyperactivity. […] The number of squares entered by the whole body (locomotor activity) was counted. The movement of the mouse around the field was recorded with a video tracking device for 3 min (version NT4.0, Viewpoint).
as §4

CC(C)C(=O)c1c(C(C)C)nn2ccccc12 [ibudilast, 2-methyl-1-(2-propan-2-ylpyrazolo[1,5-a]pyridin-3-yl)propan-1-one]
fully rescued: nesting (nest building score) (Fmr1 KO2 mice [1]) | sociability (exploration ratio) (Fmr1 KO2 mice [2]) | fear conditioning (freezing response) (Fmr1 KO2 mice [3]) | open field (hyperactivity, locomotor activity) (Fmr1 KO2 mice [4])
